Results published in patent publication US20140243196A1, “Carbamoylmethoxy- and Carbamoylmethylthio- and Carbamoylmethylamino Benzamides for Combating Invertebrate Pests” (BASF SE, priority 2011, published 2014).

Key:
Assay type in all cases: in vivo
[1] = test system: Diamond Backmoth (Plutella xylostella); experiment: Diamond backmoth leaf-dip test on cabbage leaves; conditions: 3rd instar larvae on dipped cabbage leaves, 72 hours after treatment, read-out: mortality in comparison with untreated controls
Experimental: B.1 Diamond Backmoth (Plutella xylostella)
The active compound was dissolved at the desired concentration in a mixture of 1:1 (vol:vol) distilled water: acteon. Surfactant (Alkamuls® EL 620) was added at a rate of 0.1% (vol/vol). The test solution was prepared at the day of use.
Leaves of cabbage were dipped in test solution and air-dried. Treated leaves were placed in petri dishes lined with moist filter paper and inoculated with ten 3rd instar larvae. Mortality was recorded 72 hours after treatment. Feeding damages were also recorded using a scale of 0-100%.

[2] = test system: Boll Weevil (Anthonomus grandis); experiment: Boll weevil microtiter plate insect diet test; conditions: 120 h, egg and larval mortality, 5 days, read-out: mortality in comparison with untreated controls
Experimental: B.3 Boll Weevil (Anthonomus grandis)
For evaluating control of boll weevil (Anthonomus grandis) the test unit consisted of 24-well-microtiter plates containing an insect diet and 20-30 A. grandis eggs.
The compounds were formulated using a solution containing 75% v/v water and 25% v/v DMSO. Different concentrations of formulated compounds were sprayed onto the insect diet at 20 μl, using a custom built micro atomizer, at two replications.
After application, microtiter plates were incubated at about 23±1° C. and about 50±5% relative humidity for 5 days. Egg and larval mortality was then visually assessed.

[3] = test system: Southern Armyworm (Spodoptera eridiana); experiment: Southern armyworm foliar spray test on lima bean plants; conditions: 96 h, larvae on sprayed lima bean plants, 4 days after treatment, read-out: mortality in comparison with untreated controls
Experimental: B.2 Southern Armyworm (Spodoptera eridiana)
(§1) The active compounds were formulated in cyclohexanone as a 10,000 ppm solution supplied in tubes. The tubes were inserted into an automated electrostatic sprayer equipped with an atomizing nozzle and they served as stock solutions for which lower dilutions were made in 50% acetone:50% water (v/v). A nonionic surfactant (Kinetic®) was included in the solution at a volume of 0.01% (v/v).
Lima bean plants (variety Sieva) were grown 2 plants to a pot and selected for treatment at the 1st true leaf stage. Test solutions were sprayed onto the foliage by an automated electrostatic plant sprayer equipped with an atomizing spray nozzle. The plants were dried in the sprayer fume hood and then removed from the sprayer. Each pot was placed into perforated plastic bags with a zip closure. About 10 to 11 armyworm larvae were placed into the bag and the bags zipped closed. Test plants were maintained in a growth room at about 25° C. and about 20-40% relative humidity for 4 days, avoiding direct exposure to fluorescent light (24 hour photoperiod) to prevent trapping of heat inside the bags. Mortality and reduced feeding were assessed 4 days after treatment, compared to untreated control plants.

[4] = test system: Green Peach Aphid (Myzus persicae); experiment: Green peach aphid spray test on bell pepper plants; conditions: 120 h, aphids on sprayed bell pepper plants, after 5 days, read-out: mortality in comparison with untreated controls
Excerpt: B.6 Green Peach Aphid (Myzus persicae)
as §1
Bell pepper plants at the first true-leaf stage were infested prior to treatment by placing heavily infested leaves from the main colony on top of the treatment plants. Aphids were allowed to transfer overnight to accomplish an infestation of 30-50 aphids per plant and the host leaves were removed. The infested plants were then sprayed by an automated electrostatic plant sprayer equipped with an atomizing spray nozzle. The plants were dried in the sprayer fume hood, removed, and then maintained in a growth room under fluorescent lighting in a 24-hr photoperiod at about 25° C. and about 20-40% relative humidity. Aphid mortality on the treated plants, relative to mortality on untreated control plants, was determined after 5 days.

[5] = test system: Tobacco Budworm (Heliothis virescens); experiment: Tobacco budworm microtiter plate insect diet test; conditions: 120 h, egg and larval mortality, 5 days, read-out: mortality in comparison with untreated controls
Experimental: B.4 Tobacco Budworm (Heliothis virescens) I
For evaluating control of tobacco budworm (Heliothis virescens) the test unit consisted of 96-well-microtiter plates containing an insect diet and 15-25 H. virescens eggs.
The compounds were formulated using a solution containing 75% v/v water and 25% v/v DMSO. Different concentrations of formulated compounds were sprayed onto the insect diet at 10 μl, using a custom built micro atomizer, at two replications.
After application, microtiter plates were incubated at about 28±1° C. and about 80±5% relative humidity for 5 days. Egg and larval mortality was then visually assessed.

Cc1cc(Cl)cc(C(=O)NOCC(=O)N(C)C)c1NC(=O)c1ccc(C(F)(F)F)cc1-c1ncccc1Cl [compound 1-1, 5-chloro-2-[2-(3-chloro-pyridin-2-yl)-4-trifluoromethyl-benzoylamino]-N-dimethylcarbamoylmethoxy-3-methyl-benzamide]
mortality at 500 ppm [1]: ≥ 75%
mortality at 2500 ppm [2]: > 75%
mortality at 500 ppm [3]: ≥ 75%
mortality at 2500 ppm [4]: > 75%
mortality at 2500 ppm [5]: > 75%
